According to patent US8147444B2, “Methods of treating or preventing peritonitis with oxidative reductive potential water solution” (Oculus Innovative Sciences, Inc., priority 2006, dated 2012):
Where two headings read alike, the source gives them in different places. Bridge positions count the residues as written; N and C are the ends. Square brackets hold non-standard residues; d marks the D form. Peptide text beside a SMILES is read from it. * marks the point of attachment. Ileψ(thiazoline)Cys = CC[C@H](C)[C@H](N)C1=N[C@H](C(=O)*)CS1; dOrn = NCCC[C@@H](N)C(=O)O

How the values were obtained:
[1] = test system: B. atropheus spores, Pseudomonas aeruginosa, and Staphylococcus aureus; experiment: Bacterial suspension assay, test organisms not told apart; assay type: cell-based; settings: Bacitracin 33 Units/ml; over the time periods tested
Method: Dermacyn is a ready to use product, therefore performing dilutions during testing was not required.
A purchased spore suspension of B. atropheus at 2.5×10^7/ml was used for testing. In addition fresh suspensions of Pseudomonas aeruginosa, and Staphylococcus aureus were prepared and measured using a spectrophotometer to ensure the titer was acceptable
Nine microliters of test substance was added to 100 ul of microbe suspension. The test mixture was held at 20° C. for the contact times of 20 seconds, 5 minutes, and 20 minutes. […] (entire mixture) was added to 9.0 ml of neutralizer for 20 minutes (this is the original neutralization tube or ONT) 1.0 ml of the neutralized test mixture was plated on Tryptic Soy Agar in duplicate for the 5 minute and 20 minute contact times. Additional dilutions and spread plates were used for the 20 second time point, to achieve countable plates.
All plates were incubated at 30° C.-35° C. for a total of 3 days and were evaluated after each day of incubation.

[2] = test system: human diploid fibroblasts (HDFs); experiment: Cell viability, apoptosis and necrosis by flow cytometry; assay type: cell-based; settings: 880 mM
Method: HP is known to be toxic to eukaryotic cells, increasing apoptosis and necrosis and reducing cellular viability. […] HDF cultures were obtained from three different foreskins, which were pooled and cryopreserved together for the purpose of this study. Only diploid cells were used for all experiments. […] Simultaneous analyses of these parameters were performed in the same cell populations by flow cytometry using: […] B) Annexin V-FITC; and C) Propidium iodide. FIG. 4A-4C disclose percentage values expressed as mean±SD (n=3).

[3] = test system: primary HDF cultures; settings: human, 1 month, 5 µM
[4] = test system: murine polychromatic erythrocytes
Method: The mammalian in vivo micronucleus test is used for the identification of substances which cause damage to chromosomes or the mitotic apparatus of murine polychromatic erythrocytes. This damage results in the formation of “micronuclei,” intracellular structures containing lagging chromosome fragments or isolated whole chromosomes. […] The positive control mice received a single intraperitoneal injection of cyclophosphamide (8 mg/mL, 12.5 ml/kg) on day 2. All mice were observed immediately after injection for any adverse reactions. […] On day 3, all mice were weighed and terminated.
The femurs were excised from the terminated mice, the bone marrow was extracted, and duplicate smear preparations were performed for each mouse. The bone marrow slides for each animal were read at 40× magnification. The ratio of polychromatic erythrocytes (PCE) to normochromatic erythrocytes (NCE), an index of bone marrow toxicity, was determined for each mouse by counting a total of at least 200 erythrocytes. Then a minimum of 2000 scoreable PCE per mouse were evaluated for the incidence of micronucleated polychromatic erythrocytes. Statistical analysis of the data were done using the Mann and Whitney test (at 5% risk threshold) from a statistical software package (Statview 5.0, SAS Institute Inc., USA).

CC[C@H](C)[C@H](N)C1=N[C@H](C(=O)N[C@@H](CC(C)C)C(=O)N[C@H](CCC(=O)O)C(=O)N[C@H](C(=O)N[C@H]2CCCCNC(=O)[C@H](CC(N)=O)NC(=O)[C@@H](CC(=O)O)NC(=O)[C@H](Cc3cnc[nH]3)NC(=O)[C@@H](Cc3ccccc3)NC(=O)[C@H]([C@@H](C)CC)NC(=O)[C@@H](CCCN)NC2=O)[C@@H](C)CC)CS1 [Bacitracin] ({Ileψ(thiazoline)Cys}-L[dE]IK[dOrn]I[dF]H[dD]N; lactam 4-C)
lowering of bacterial or spore populations [1]: no evidence of lowering the bacterial or spore populations

OO [HP, hydrogen peroxide]
Apoptosis, cells exposing Annexin-V ([2]; 5 min): 15%
Apoptosis, cells exposing Annexin-V ([2]; 30 min): 20%
Cells with SA-β-Gal expression [3]: 86%

O=P1(N(CCCl)CCCl)NCCCO1 (centres unmarked) [cyclophosphamide]
number of polychromatic erythrocytes bearing micronuclei ([4]; females, negative control 1.0): 12.6
PCE/NCE ratio ([4]; females, negative control 1.02): 0.73
number of polychromatic erythrocytes bearing micronuclei ([4]; males, negative control 0.6): 11.0
PCE/NCE ratio ([4]; males, negative control 0.90): 0.77
